For assay [1], the species on record is Cavia porcellus. In words: In vitro potency in reversing vecuronium-induced block in guinea pig hemidiaphram. In kind it is functional.
Assay [2] deals with Acetylcholinesterase (Homo sapiens, UniProt P22303). In words: In vitro inhibitory activity against human recombinant AChE.
In assay [3] the test system is Felis catus. In words: Tested for effect on autonomic vagal membrane at dose of 1.28 umol/kg in cat. It counts as functional.
For assay [4], the species on record is Felis catus. In words: Effective dose required to reverse vecuronium-induced neuromuscular block in cat. It counts as functional.
Assay [5] has as its system Felis catus. The assay can be described thus: Tested for change in arterial pressure at dose of 1.28 umol/kg in cat. In kind it is functional, Artery.
The test system of assay [6] is Felis catus. In words: Tested for effect on nictitating membrane at dose of 1.28 umol/kg in cat. In kind it is functional.
For assay [7], the system named is Felis catus. In words: Tested for change in LV dp/dt at dose of 1.28 umol/kg in cat. In kind it is functional.
For assay [8], the system named is Felis catus. In words: Tested for change in heart rate at dose of 1.28 umol/kg in cat. It counts as functional.
Assay [9] has as its system Felis catus. In words: Tested for change in LV pressure at dose of 1.28 umol/kg in cat. In kind it is functional.
The subject of assay [10] is Felis catus. In words: Tested for effect on autonomic vagal membrane at dose of 2.1 umol/kg in cat. In kind it is functional.
The test system of assay [11] is Felis catus. In words: Tested for change in arterial pressure at dose of 2.1 umol/kg in cat. In kind it is functional, Artery.
For assay [12], the system named is Felis catus. The assay can be described thus: Tested for change in LV pressure at dose of 2.1 umol/kg in cat. It counts as functional.
Assay [13] deals with Felis catus. The assay can be described thus: Tested for effect on nictitating membrane at dose of 2.1 umol/kg in cat. It counts as functional.
Assay [14] has as its system Felis catus. The assay can be described thus: Tested for change in heart rate at dose of 2.1 umol/kg in cat. It counts as functional.
Assay [15] concerns Felis catus. In words: Tested for change in LV dp/dt at dose of 2.1 umol/kg in cat. It counts as functional.
Assay [16] deals with Felis catus. The assay can be described thus: Tested for change in LV pressure at dose of 2.56 umol/kg in cat. In kind it is functional.
Assay [17] has as its system Felis catus. The assay can be described thus: Tested for change in heart rate at dose of 2.56 umol/kg in cat. In kind it is functional.
The subject of assay [18] is Felis catus. The assay can be described thus: Tested for change in arterial pressure at dose of 2.56 umol/kg in cat. In kind it is functional, Artery.
The subject of assay [19] is Felis catus. The assay can be described thus: Tested for effect on nictitating membrane at dose of 2.56 umol/kg in cat. It counts as functional.
For assay [20], the system named is Felis catus. In words: Tested for change in LV dp/dt at dose of 2.56 umol/kg in cat. In kind it is functional.
For assay [21], the system named is Felis catus. In words: Tested for effect on autonomic vagal membrane at dose of 2.56 umol/kg in cat. In kind it is functional.
Assay [22] relates to Felis catus. In words: Tested for effect on autonomic vagal membrane at dose of 1.026 umol/kg in cat. In kind it is functional.
Assay [23] concerns Felis catus. The assay can be described thus: Tested for change in LV pressure at dose of 1.026 umol/kg in cat. It counts as functional.
Assay [24] deals with Felis catus. The assay can be described thus: Tested for change in heart rate at dose of 1.026 umol/kg in cat. In kind it is functional.
For assay [25], the system named is Felis catus. The assay can be described thus: Tested for effect on nictitating membrane at dose of 1.026 umol/kg in cat. In kind it is functional.
Assay [26] deals with Felis catus. The assay can be described thus: Tested for change in arterial pressure at dose of 1.026 umol/kg in cat. In kind it is functional, Artery.
Assay [27] relates to Felis catus. In words: Tested for change in LV dp/dt at dose of 1.026 umol/kg in cat. In kind it is functional.
In assay [28] the test system is Felis catus. The assay can be described thus: Tested for change in arterial pressure at dose of 0.076 umol/kg in cat. In kind it is functional, Artery.
The subject of assay [29] is Felis catus. In words: Tested for change in LV dp/dt at dose of 0.076 umol/kg in cat. In kind it is functional.
In assay [30] the test system is Felis catus. The assay can be described thus: Tested for change in heart rate at dose of 0.076 umol/kg in cat. It counts as functional.
For assay [31], the system named is Felis catus. The assay can be described thus: Tested for change in LV pressure at dose of 0.076 umol/kg in cat. It counts as functional.
The subject of assay [32] is Felis catus. In words: Tested for effect on nictitating membrane at dose of 0.076 umol/kg in cat. In kind it is functional.
Assay [33] relates to Felis catus. In words: Tested for effect on autonomic vagal membrane at dose of 0.076 umol/kg in cat. It counts as functional.

In general, IC50 refers to the concentration that inhibits the measured activity by half. As a reminder, the ED50 is the midpoint of the dose-response relation. A low value points to greater potency.

Acetylcholinesterase, sequence (P22303 whole entry): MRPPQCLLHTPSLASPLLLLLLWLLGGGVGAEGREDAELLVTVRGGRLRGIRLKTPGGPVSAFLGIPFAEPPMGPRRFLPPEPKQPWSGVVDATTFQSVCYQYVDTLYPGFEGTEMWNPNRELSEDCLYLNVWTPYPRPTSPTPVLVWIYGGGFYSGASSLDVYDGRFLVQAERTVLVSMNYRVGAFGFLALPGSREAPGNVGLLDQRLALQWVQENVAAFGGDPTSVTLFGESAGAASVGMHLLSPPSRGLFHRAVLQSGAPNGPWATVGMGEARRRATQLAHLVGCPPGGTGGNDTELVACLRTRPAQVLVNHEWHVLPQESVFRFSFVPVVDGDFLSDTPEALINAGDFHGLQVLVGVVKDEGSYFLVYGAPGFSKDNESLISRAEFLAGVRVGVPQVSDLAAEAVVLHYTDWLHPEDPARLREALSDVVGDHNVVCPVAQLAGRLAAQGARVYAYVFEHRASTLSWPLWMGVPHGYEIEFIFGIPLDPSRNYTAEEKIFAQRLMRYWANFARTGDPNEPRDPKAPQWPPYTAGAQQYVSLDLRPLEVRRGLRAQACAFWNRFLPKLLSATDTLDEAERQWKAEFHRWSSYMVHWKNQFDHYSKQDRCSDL

With `CC(=O)Oc1ccccc1[N+](C)(C)Cc1ccccc1`, the IC50 is above 3 µM in assay [1] and above 10 µM in [2].
In the same order, the values of `COc1ccccc1[N+](C)(C)Cc1ccccc1` are above 3 µM and above 10 µM.
On the same counts, the results for `C[N+](C)(Cc1ccccc1)c1ccc(O)cc1` are above 3 µM and above 10 µM.
`C=CC[N+](C)(C)c1ccccc1OC.[Br-]`: the Change was found to be 41% in assay [3]; 24% in assay [5]; 2% in assay [6]; 9% in [7]; 2% in assay [8]; 9% in [9]. In assay [4], the 50% effect level (ED50) was put at a dose of 0.22 µmol/kg. Besides, the values for the IC50 in [1] and in assay [2] were 2.89 µM and 1 µM, respectively.
Regarding `C=CC[N+](C)(C)c1ccc(OC(C)=O)cc1`, the IC50 in assay [1] was above 3 µM; in assay [2] it was above 10 µM.
Turning to `C[N+](C)(Cc1ccccc1)Cc1cccc(O)c1`, the IC50 in assay [2] is above 10 µM.
Turning to `C=C(C)C[N+](C)(C)c1ccccc1O`, the IC50 was above 3 µM in assay [1] and above 10 µM in assay [2].
In the case of `C=CC[N+](C)(C)c1ccc(O)cc1`, the IC50 in assay [1] was above 3 µM; in [2], above 10 µM.
For `CC(=O)Oc1ccc([N+](C)(C)Cc2ccccc2)cc1`, the IC50 is above 3 µM in assay [1] and above 10 µM in [2].
Consider `C=CC[N+](C)(C)c1ccccc1O.[Br-]`, for which the 50% effect level in assay [4] (ED50) was put at a dose of 0.5 µmol/kg. Also, the Change in assay [10] is recorded as 5%; in assay [11] it was 2%; in assay [12] it was 12%; in assay [13] it was 5%; in [14], 1%; in [15], 8%. In addition, the values for the IC50 in assay [1] and in assay [2] were 74 µM and 1.85 µM, respectively.
Turning to `COc1ccc(C(=O)CCc2cccc([N+](C)(C)C)c2)cc1OC`, in [2], the IC50 was above 10 µM.
`COc1ccc(C(=O)COc2cccc([N+](C)(C)Cc3ccccc3)c2)cc1OC.[Br-]`: the Change was found to be 63% in assay [16]; 8% in assay [17]; 56% in assay [18]; 34% in assay [19]; 82% in assay [20]; 5% in assay [21]. For the same molecule, the IC50 worked out at 1.69 µM in assay [1] and 0.33 µM in assay [2].
Take `COc1cccc(C[N+](C)(C)Cc2ccccc2)c1`: in assay [2], the IC50 was above 10 µM.
With `C=CC[N+](C)(C)c1cccc(O)c1`, the IC50 in assay [1] was found to be 13 µM; in assay [2], 3 µM.
As to `C=CC[N+](C)(C)c1cccc(OC)c1`, the IC50 in assay [1] was above 3 µM; in assay [2], above 10 µM.
On the same counts, the results for `C=C(C)C[N+](C)(C)c1cccc(O)c1` are above 3 µM and above 10 µM.
On the same counts, the results for `COc1cccc([N+](C)(C)Cc2ccccc2)c1` are above 3 µM and above 10 µM.
In the case of `C[N+](C)(Cc1ccccc1)c1ccccc1O`, the IC50 in [1] is above 3 µM; in [2], above 10 µM.
Take `C[N+](C)(Cc1ccccc1)c1cccc(O)c1`: the IC50 in [1] is above 3 µM; in [2], above 10 µM.
In the same order, the values of `C=CC[N+](C)(C)c1cccc(OC(C)=O)c1` are 3.87 µM and 1 µM.
On the same counts, the results for `COc1ccc([N+](C)(C)Cc2ccccc2)cc1` are above 3 µM and above 10 µM.
On the same counts, the results for `C=C(C)C[N+](C)(C)c1ccccc1OC` are above 3 µM and above 10 µM.
With `C=C(C)C[N+](C)(C)c1cccc(OC)c1`, the IC50 in assay [1] is above 3 µM; in [2], above 10 µM.
On the same counts, the results for `C[N+](C)(C)Cc1cccc(O)c1` are above 3 µM and above 10 µM.
In the same order, the values of `COc1ccc(C(=O)CCc2ccc([N+](C)(C)C)cc2)cc1OC` are 2 µM and 3 µM.
For the molecule `CC[N+](C)(C)c1cccc(O)c1.[Br-]` [EDROPHONIUM BROMIDE], the Change in [22] was -67%; in [23], 23%; in assay [24], 2%; in [25], 7%; in [26] it was 22%; in [27], 20%. In addition, the IC50 in assay [1] came to 2.77 µM.
In the case of `COc1ccc(C(=O)COc2ccc([N+](C)(C)C)cc2)cc1OC`, the IC50 in assay [1] was 9.8 µM; in assay [2], 10 µM.
In the same order, the values of `COc1ccc(C(=O)COc2cccc([N+](C)(C)C)c2)cc1OC` are 7.08 µM and 10 µM.
In the same order, the values of `COc1ccc(C(=O)COc2ccc([N+](C)(C)Cc3ccccc3)cc2)cc1OC` are 19.4 µM and 10 µM.
Consider `COc1cccc(C[N+](C)(C)C)c1`, for which, in [2], the IC50 is above 10 µM.
As to `COc1ccc(C(=O)CCc2cccc([N+](C)(C)Cc3ccccc3)c2)cc1OC`, the IC50 in assay [1] was above 3 µM; in assay [2], 1.04 µM.
In the case of `CN(C)C(=O)Oc1cccc([N+](C)(C)C)c1.[Br-]` [NEOSTIGMINE BROMIDE], the Change in assay [28] was 22%; in [29], 12%; in [30], 4%; in assay [31], -14%; in assay [32], 6%; in assay [33] it was 62%. Further, the IC50 in assay [1] turned out to be 0.028 µM.
On to `C=CC[N+](C)(C)Cc1cccc(OC)c1`, for which the IC50 in assay [1] was above 3 µM; in [2], above 10 µM.
In the same order, the values of `C=CC[N+](C)(C)Cc1cccc(O)c1` are above 3 µM and above 10 µM.
On the same counts, the results for `C=CC[N+](C)(C)c1ccc(OC)cc1` are above 3 µM and above 10 µM.
For the molecule `CC(=O)Oc1cccc([N+](C)(C)Cc2ccccc2)c1`, the IC50 in assay [1] was above 3 µM; in assay [2], above 10 µM.
As to `COc1ccc(C(=O)CCc2ccc([N+](C)(C)Cc3ccccc3)cc2)cc1OC`, the values for the IC50 in assay [1] and in [2] were 4.11 µM and 1.3 µM, respectively.
On the same counts, the results for `C=CC[N+](C)(C)c1ccc(OCC(=O)c2ccc(OC)c(OC)c2)cc1` are 0.5 µM and 10 µM.
On the same counts, the results for `C=CCC[N+](C)(C)c1ccccc1O` are above 10 µM and 10 µM.
In the same order, the values of `C=C(C)C[N+](C)(C)c1ccc(O)cc1` are above 3 µM and above 10 µM.

The values above are taken from ChEMBL document CHEMBL1135872, “Oxyaniliniums as acetylcholinesterase inhibitors for the reversal of neuromuscular block” (Bioorg Med Chem Lett, 2002).
